Some test systems named below: Staphylococcus aureus; Escherichia coli; Bacillus subtilis; Pseudomonas aeruginosa.
Holding throughout (test): ≥ marks a high value that may be exact or a test limit, other limits are often not marked, values filed in µg/mL are converted to µM
Test [1] relates to Staphylococcus aureus ATCC 29213.
Test [2] deals with Escherichia coli ATCC 25922.
In test [3] the test system is Staphylococcus epidermidis ATCC 12228.

Structures are written as SMILES. Values after ≈ are worked out from the molar mass of the structure shown.

Consider `CC[C@H](C)[C@H](NC(=O)[C@H](CCCN=C(N)N)NC(=O)[C@H](CCCCN)NC(=O)[C@@H](N)Cc1ccccc1)C(=O)NCC(=O)N[C@@H](CCC(N)=O)C(=O)N[C@@H](CCCN=C(N)N)C(=O)N[C@H](C(=O)N[C@@H](CCCCN)C(=O)N[C@@H](CC(=O)O)C(=O)N[C@@H](Cc1ccccc1)C(=O)N[C@@H](CC(C)C)C(=O)N[C@@H](CCCN=C(N)N)C(=O)O)[C@@H](C)CC` [FKRIGQRIKDFLR], for which the minimum inhibitory concentration (MIC) in test [1] was over 40 µM; in test [2], 5 µM (≈ 8.39 µg/mL).
The like results for `CC[C@H](C)[C@H](NC(=O)[C@H](CCCN=C(N)N)NC(=O)[C@H](CCCCN)NC(=O)[C@@H](N)Cc1ccccc1)C(=O)N[C@H](C(=O)N[C@@H](CCC(N)=O)C(=O)N[C@@H](CCCN=C(N)N)C(=O)N[C@@H](C)C(=O)N[C@@H](CCCCN)C(=O)N[C@@H](CC(=O)O)C(=O)N[C@@H](Cc1ccccc1)C(=O)N[C@@H](CC(C)C)C(=O)N[C@@H](CCCN=C(N)N)C(=O)O)C(C)C` [FKRIVQRAKDFLR] were, in that order, over 40 µM and 10 µM (≈ 16.8 µg/mL).
As to `CC[C@H](C)[C@H](NC(=O)[C@H](CCCN=C(N)N)NC(=O)[C@H](CCC(N)=O)NC(=O)[C@@H](NC(=O)[C@H](CC(N)=O)NC(=O)[C@H](CCCN=C(N)N)NC(=O)[C@H](CCCCN)NC(=O)[C@@H](N)Cc1ccccc1)C(C)C)C(=O)N[C@@H](CCCCN)C(=O)N[C@@H](CC(=O)O)C(=O)N[C@@H](Cc1ccccc1)C(=O)N[C@@H](CC(C)C)C(=O)N[C@@H](CCCN=C(N)N)C(=O)O` [FKRNVQRIKDFLR], the results for the minimal inhibitory concentration (MIC) in test [1] and in test [2] were over 40 µM and 20 µM (≈ 34.4 µg/mL), respectively.
As for `CC[C@H](C)[C@H](NC(=O)[C@H](Cc1ccccc1)NC(=O)[C@@H]1CCCN1C(=O)[C@H](CC(C)C)NC(=O)[C@@H](N)Cc1ccccc1)C(=O)N[C@@H](C)C(=O)N[C@@H](CCCN=C(N)N)C(=O)N[C@@H](CC(C)C)C(=O)N[C@@H](C)C(=O)N[C@@H](C)C(=O)N[C@@H](CCCCN)C(=O)N[C@H](C(=O)N[C@@H](Cc1ccccc1)C(=O)N1CCC[C@H]1C(=O)N[C@@H](CO)C(=O)N[C@H](C(=O)N[C@H](C(=O)N[C@H]1CSSC[C@@H](C(=O)O)NC(=O)[C@H](CCCCN)NC(=O)[C@H](CCCCN)NC(=O)[C@H]([C@@H](C)O)NC(=O)[C@H](C(C)C)NC(=O)[C@H](CO)NC1=O)[C@@H](C)CC)[C@@H](C)CC)C(C)C` [FLPFIARLAAKVFPSIICSVTKKC], the values for the minimal inhibitory concentration (MIC) (with Staphylococcus aureus; in test [1]; in test [2]) were 55 µM (≈ 146 µg/mL), 0.533 µM (≈ 1.41 µg/mL) and 1.51 µM (≈ 4 µg/mL), respectively.
Turning to `CC[C@H](C)[C@H](NC(=O)CN)C(=O)N[C@@H](CCCCN)C(=O)N[C@@H](CCCCN)C(=O)N[C@@H](Cc1c[nH]c2ccccc12)C(=O)N[C@@H](CC(C)C)C(=O)N[C@@H](Cc1cnc[nH]1)C(=O)N[C@@H](CCCCN)C(=O)N1CCC[C@H]1C(=O)N[C@@H](CCCCN)C(=O)N[C@@H](CCCCN)C(=O)N[C@@H](Cc1ccccc1)C(=O)N1CCC[C@H]1C(=O)N[C@@H](CCCCN)C(=O)N[C@@H](CCCCN)C(=O)N[C@@H](Cc1ccccc1)C(=O)N[C@H](C(=O)N[C@@H](CCCCN)C(=O)N[C@@H](CCCCN)C(=O)N[C@H](C(=O)N[C@@H](CCSC)C(=O)N[C@@H](CC(N)=O)C(=O)N[C@@H](CO)C(N)=O)[C@@H](C)CC)C(C)C` [GIKKWLHKPKKFPKKFVKKIMNS], the values for the MIC in test [3] and in test [2] were 1.25 µM (≈ 3.51 µg/mL) and 10 µM (≈ 28.1 µg/mL), respectively.
Take `CC[C@H](C)[C@H](NC(=O)[C@H](Cc1ccccc1)NC(=O)CNC(=O)[C@H](CCCCN)NC(=O)[C@H](C)NC(=O)[C@H](Cc1ccccc1)NC(=O)[C@H](CCCCN)NC(=O)[C@H](CCCCN)NC(=O)[C@@H](NC(=O)[C@H](CO)NC(=O)[C@H](Cc1cnc[nH]1)NC(=O)[C@H](CC(C)C)NC(=O)[C@@H](NC(=O)[C@H](CCC(=O)O)NC(=O)[C@H](CCCCN)NC(=O)[C@H](CC(C)C)NC(=O)CN)C(C)C)[C@@H](C)O)C(=O)N[C@H](C(=O)NCC(=O)N[C@@H](CC(C)C)C(=O)N[C@H](C(=O)NCC(=O)N[C@@H](CCC(N)=O)C(=O)O)[C@@H](C)O)[C@@H](C)O` [GLKEVLHSTKKFAKGFITGLTGQ]: the MIC against Escherichia coli and with Staphylococcus aureus was over 160 µM in each case.
As to `CC[C@H](C)[C@H](NC(=O)[C@@H](NC(=O)[C@@H](NC(=O)[C@H](Cc1c[nH]c2ccccc12)NC(=O)[C@@H](NC(=O)CN)C(C)C)[C@@H](C)O)[C@@H](C)O)C(=O)N[C@@H](CC(C)C)C(=O)NCC(=O)NCC(=O)N[C@@H](CC(C)C)C(=O)N[C@@H](CCCCN)C(=O)N[C@@H](CCCCN)C(=O)N[C@@H](Cc1ccccc1)C(=O)N[C@@H](C)C(=O)N[C@@H](CCCCN)C(=O)NCC(=O)NCC(=O)N[C@@H](CC(C)C)C(=O)N[C@@H](CCC(=O)O)C(=O)N[C@@H](C)C(=O)N[C@@H](CC(C)C)C(=O)N[C@H](C(=O)N[C@@H](CC(N)=O)C(=O)N1CCC[C@H]1C(=O)N[C@@H](CCCCN)C(=O)O)[C@@H](C)O` [GVWTTILGGLKKFAKGGLEALTNPK], the minimal inhibitory concentration (MIC) in the test with Escherichia coli worked out at 40 µM (≈ 104 µg/mL); in the test with Staphylococcus aureus it was 80 µM (≈ 208 µg/mL).
As for `CC[C@H](C)[C@H](N)C(=O)N[C@@H](CC(N)=O)C(=O)N[C@@H](Cc1c[nH]c2ccccc12)C(=O)N[C@@H](CCCCN)C(=O)N[C@@H](CCCCN)C(=O)N[C@H](C(=O)N[C@@H](C)C(=O)N[C@@H](CO)C(=O)N[C@H](C(=O)NCC(=O)N[C@@H](CCCCN)C(=O)N[C@@H](CCC(=O)O)C(=O)N[C@H](C(=O)N[C@@H](CC(C)C)C(=O)N[C@@H](CCCCN)C(N)=O)C(C)C)[C@@H](C)CC)[C@@H](C)CC` [INWKKIASIGKEVLK], the MIC against Bacillus subtilis was at least 100 µM; against Escherichia coli, 100 µM (≈ 173 µg/mL).
As to `CC[C@H](C)[C@H](N)C(=O)N[C@@H](CC(N)=O)C(=O)N[C@@H](Cc1c[nH]c2ccccc12)C(=O)N[C@@H](CCCCN)C(=O)N[C@@H](CCCCN)C(=O)N[C@H](C(=O)N[C@@H](Cc1ccccc1)C(=O)N[C@@H](CCC(=O)O)C(=O)N[C@@H](CO)C(=O)N[C@H](C(=O)N[C@@H](CCCCN)C(=O)N[C@@H](CC(N)=O)C(=O)N[C@@H](CC(C)C)C(=O)N[C@H](C(N)=O)C(C)C)C(C)C)[C@@H](C)CC` [INWKKIFESVKNLV], the MIC against Bacillus subtilis and against Escherichia coli was 10 µM (≈ 17.2 µg/mL) in each case.
Consider `CC[C@H](C)[C@H](N)C(=O)N[C@@H](CC(N)=O)C(=O)N[C@@H](Cc1c[nH]c2ccccc12)C(=O)N[C@@H](CCCCN)C(=O)N[C@@H](CO)C(=O)N[C@H](C(=O)N[C@@H](Cc1ccccc1)C(=O)N[C@@H](CCC(=O)O)C(=O)N[C@@H](CCCCN)C(=O)N[C@H](C(=O)N[C@@H](CCCCN)C(=O)N[C@@H](CC(N)=O)C(=O)N[C@@H](CC(C)C)C(=O)N[C@H](C(N)=O)C(C)C)C(C)C)[C@@H](C)CC` [INWKSIFEKVKNLV], for which the minimal inhibitory concentration (MIC) against Bacillus subtilis and against Escherichia coli was 15 µM (≈ 25.8 µg/mL) each time.
For `CC[C@H](C)[C@H](NC(=O)[C@H](C)NC(=O)[C@H](CCCCN)NC(=O)[C@H](C)NC(=O)[C@@H](NC(=O)[C@H](CO)NC(=O)[C@H](CCCCN)NC(=O)[C@@H](NC(=O)[C@H](Cc1c[nH]c2ccccc12)NC(=O)[C@H](CCCCN)NC(=O)[C@H](CC(C)C)NC(=O)[C@@H](NC(=O)[C@H](CO)NC(=O)[C@H](CCCCN)NC(=O)[C@H](C)NC(=O)[C@@H](NC(=O)[C@H](C)NC(=O)[C@@H](N)CCCCN)[C@@H](C)CC)[C@@H](C)CC)[C@@H](C)CC)[C@@H](C)CC)C(N)=O` [KAIAKSILKWIKSIAKAI], the MIC in the test on Escherichia coli was determined as 5.6 µM (≈ 11.1 µg/mL); against Staphylococcus aureus it was 1.4 µM (≈ 2.77 µg/mL); against Pseudomonas aeruginosa, 11.2 µM (≈ 22.2 µg/mL).
`CC(C)C[C@H](NC(=O)CNC(=O)[C@H](C)NC(=O)[C@H](CCCCN)NC(=O)[C@H](CC(C)C)NC(=O)[C@H](CCCCN)NC(=O)[C@H](C)NC(=O)[C@H](CC(C)C)NC(=O)CNC(=O)[C@H](C)NC(=O)[C@H](CCCCN)NC(=O)[C@H](Cc1c[nH]c2ccccc12)NC(=O)[C@H](CCCCN)NC(=O)[C@H](C)NC(=O)[C@H](CC(C)C)NC(=O)CNC(=O)[C@H](C)NC(=O)[C@H](CCCCN)NC(=O)[C@H](CC(C)C)NC(=O)[C@@H](N)CCCCN)C(=O)N[C@@H](C)C(N)=O` [KLKAGLAKWKAGLAKLKAGLA]: the values for the minimum inhibitory concentration (MIC) against Escherichia coli, against Staphylococcus aureus and against Pseudomonas aeruginosa were 15 µM (≈ 32 µg/mL), 120 µM (≈ 256 µg/mL) and over 120 µM, respectively.
On to `CC(=O)N[C@@H](CC(C)C)C(=O)N[C@@H](CCCCN)C(=O)N[C@@H](CCCCN)C(=O)N[C@@H](CC(C)C)C(=O)N1CCC[C@H]1C(=O)N[C@@H](CCCCN)C(=O)N[C@@H](CC(C)C)C(=O)N[C@@H](CO)C(=O)N[C@@H](CCCCN)C(=O)N[C@@H](CCCCN)C(=O)N[C@@H](CC(C)C)C(=O)N[C@@H](CC(C)C)C(=O)N[C@@H](CCCCN)C(=O)N[C@@H](CC(C)C)C(N)=O` [LKKLPKLSKKLLKL], for which the MIC is 14.1 µM (≈ 23.9 µg/mL) in test [1] and 3.54 µM (≈ 5.98 µg/mL) in test [2].
The like results for `CC[C@H](C)[C@H](NC(=O)[C@@H](NC(=O)[C@H](C)NC(=O)[C@H](CCCN=C(N)N)NC(=O)[C@H](CC(N)=O)NC(=O)[C@H](Cc1ccccc1)NC(=O)[C@H](CO)NC(=O)[C@@H](NC(=O)[C@H](CCCN=C(N)N)NC(=O)[C@H](CCCN=C(N)N)NC(=O)[C@H](CCCN=C(N)N)NC(=O)[C@H](CC(C)C)NC(=O)[C@H](CCC(=O)O)NC(=O)[C@H](CC(N)=O)NC(=O)[C@H](CCC(=O)O)NC(=O)[C@H](CCC(=O)O)NC(=O)[C@H](CC(N)=O)NC(=O)[C@@H](N)CC(N)=O)C(C)C)C(C)C)C(=O)N[C@@H](Cc1cnc[nH]1)C(=O)N[C@@H](CO)C(=O)N[C@@H](CC(C)C)C(=O)N[C@@H](CC(C)C)C(=O)NCC(N)=O` [NNEENELRRRVSFNRAVIHSLLG] were, in that order, over 257 µM and over 257 µM.
`CC(C)C[C@H](NC(=O)[C@H](Cc1ccccc1)NC(=O)[C@@H]1CCCN1C(=O)[C@H](Cc1c[nH]c2ccccc12)NC(=O)[C@H](Cc1c[nH]c2ccccc12)NC(=O)[C@H](Cc1c[nH]c2ccccc12)NC(=O)[C@H](C)NC(=O)[C@H](Cc1ccccc1)NC(=O)[C@H](CCCN=C(N)N)NC(=O)[C@H](CCCN=C(N)N)NC(=O)[C@@H](N)C(C)C)C(=O)N[C@@H](CCCN=C(N)N)C(=O)N[C@@H](CCCN=C(N)N)C(N)=O` [VRRFAWWWPFLRR]: the MIC with Escherichia coli is 10.7 µM (≈ 20 µg/mL); with Staphylococcus aureus, 2.13 µM (≈ 4 µg/mL); in test [2] it was 8 µM (≈ 15 µg/mL).

For orientation: MIC means the lowest concentration found to suppress growth.

(Values after DBAASP.)
